Results as given in ChEMBL document CHEMBL4732227, “Discovery of a novel potent cytochrome P450 CYP4Z1 inhibitor” (Eur J Med Chem, 2021).

Assays:
Cytochrome P450 4Z1 [1] = target: T1, Cytochrome P450 4Z1 (Homo sapiens, UniProt Q86W10); test: Inhibition of human CYP4Z1 expressed in permeabilized fission AZ3 yeast cells at 100 nM using luciferin-3FBE as substrate incubated for 3 hrs by luminescence based enzyme bag assay relative to control; assay type: cell-based
T1 sequence (Q86W10 whole entry): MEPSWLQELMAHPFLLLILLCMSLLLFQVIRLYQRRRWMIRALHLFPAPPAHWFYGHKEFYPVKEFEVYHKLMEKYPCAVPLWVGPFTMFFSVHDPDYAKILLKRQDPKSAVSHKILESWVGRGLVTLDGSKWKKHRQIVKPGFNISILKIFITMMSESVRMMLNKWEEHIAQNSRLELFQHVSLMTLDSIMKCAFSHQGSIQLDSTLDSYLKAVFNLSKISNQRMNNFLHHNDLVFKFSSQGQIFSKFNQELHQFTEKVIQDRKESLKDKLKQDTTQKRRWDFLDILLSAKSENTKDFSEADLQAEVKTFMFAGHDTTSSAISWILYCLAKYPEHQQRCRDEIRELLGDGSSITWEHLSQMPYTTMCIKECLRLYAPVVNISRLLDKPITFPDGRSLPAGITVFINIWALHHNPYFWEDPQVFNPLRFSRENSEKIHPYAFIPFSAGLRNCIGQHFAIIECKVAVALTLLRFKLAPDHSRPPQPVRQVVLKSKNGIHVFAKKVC

Cytochrome P450 4Z1 [2] = target: T1, Cytochrome P450 4Z1; test: Inhibition of human CYP4Z1 overexpressed in human MCF7 cells at 1 uM using luciferin-3FBE as substrate incubated for 24 hrs followed by substrate addition by luminescence based assay relative to control; assay type: cell-based
Cytochrome P450 4Z1 [3] = target: T1, Cytochrome P450 4Z1; test: Inhibition of human CYP4Z1 overexpressed in human MCF7 cells using luciferin-3FBE as substrate incubated for 24 hrs followed by substrate addition by luminescence based assay; assay type: cell-based
Cytochrome P450 4Z1 [4] = target: T1, Cytochrome P450 4Z1; test: Inhibition of human CYP4Z1 overexpressed in human MCF7 cells using luciferin-BE as substrate incubated for 24 hrs followed by substrate addition by luminescence based assay; assay type: cell-based
CYP1A2 = target: T2, CYP1A2 (Homo sapiens, UniProt P05177); test: Inhibition of human CYP1A2 at 1 uM using luciferin-ME as substrate by enzyme bag based one point inhibition assay relative to control; assay type: ADME; conditions: enzyme bags, probe luciferin-ME
T2 sequence (P05177 whole entry): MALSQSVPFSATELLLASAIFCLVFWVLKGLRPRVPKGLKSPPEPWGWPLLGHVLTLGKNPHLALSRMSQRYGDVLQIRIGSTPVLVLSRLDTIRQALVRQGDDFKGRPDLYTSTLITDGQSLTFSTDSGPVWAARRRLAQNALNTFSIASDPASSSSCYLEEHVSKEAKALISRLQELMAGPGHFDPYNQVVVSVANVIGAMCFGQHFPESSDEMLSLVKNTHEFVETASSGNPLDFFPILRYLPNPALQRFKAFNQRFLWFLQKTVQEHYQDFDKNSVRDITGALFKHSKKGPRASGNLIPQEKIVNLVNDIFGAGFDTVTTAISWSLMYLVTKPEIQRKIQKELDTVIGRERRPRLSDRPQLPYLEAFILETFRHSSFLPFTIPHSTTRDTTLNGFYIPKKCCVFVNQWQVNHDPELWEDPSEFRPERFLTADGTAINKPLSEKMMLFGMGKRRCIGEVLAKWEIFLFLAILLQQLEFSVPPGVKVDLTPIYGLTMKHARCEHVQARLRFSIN

CYP2C9 = CYP2C9 (Homo sapiens, UniProt P11712); test: Inhibition of human CYP2C9 at 1 uM using luciferin-H as substrate by enzyme bag based one point inhibition assay relative to control; assay type: ADME; conditions: enzyme bags, probe luciferin-H
Sequence of CYP2C9 (P11712 whole entry): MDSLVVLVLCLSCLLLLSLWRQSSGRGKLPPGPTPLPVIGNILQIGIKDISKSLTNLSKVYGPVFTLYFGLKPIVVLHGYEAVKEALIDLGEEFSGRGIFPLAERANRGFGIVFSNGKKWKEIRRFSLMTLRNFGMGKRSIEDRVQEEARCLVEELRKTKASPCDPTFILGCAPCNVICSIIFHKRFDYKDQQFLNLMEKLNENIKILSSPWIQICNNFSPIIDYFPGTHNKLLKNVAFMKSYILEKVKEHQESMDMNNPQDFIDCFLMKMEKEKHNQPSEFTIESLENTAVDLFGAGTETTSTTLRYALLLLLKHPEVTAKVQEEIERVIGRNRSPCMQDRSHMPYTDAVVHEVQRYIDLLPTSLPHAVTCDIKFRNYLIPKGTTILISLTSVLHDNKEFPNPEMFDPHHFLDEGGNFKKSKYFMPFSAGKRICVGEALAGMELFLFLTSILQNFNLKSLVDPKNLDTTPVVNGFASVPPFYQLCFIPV

CYP2C19 = CYP2C19 (Homo sapiens, UniProt P33261); test: Inhibition of human CYP2C19 at 1 uM using luciferin-HEGE as substrate by enzyme bag based one point inhibition assay relative to control; assay type: ADME; conditions: enzyme bags, probe luciferin-HEGE
Sequence of CYP2C19 (P33261 whole entry): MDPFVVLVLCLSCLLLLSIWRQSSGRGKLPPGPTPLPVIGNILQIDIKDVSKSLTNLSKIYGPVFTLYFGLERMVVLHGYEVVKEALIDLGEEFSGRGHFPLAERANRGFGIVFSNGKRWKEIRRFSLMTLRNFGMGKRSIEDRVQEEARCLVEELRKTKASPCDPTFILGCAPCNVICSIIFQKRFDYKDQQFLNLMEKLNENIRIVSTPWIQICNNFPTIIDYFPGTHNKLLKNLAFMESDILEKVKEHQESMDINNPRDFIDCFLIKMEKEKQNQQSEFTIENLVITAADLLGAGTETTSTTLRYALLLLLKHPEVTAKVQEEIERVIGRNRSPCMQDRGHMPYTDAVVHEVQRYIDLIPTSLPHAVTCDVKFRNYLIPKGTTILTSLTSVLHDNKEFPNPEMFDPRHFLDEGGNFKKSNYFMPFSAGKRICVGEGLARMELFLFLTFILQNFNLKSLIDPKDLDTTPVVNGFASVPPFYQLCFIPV

CYP2D6 = CYP2D6 (Homo sapiens, UniProt P10635); test: Inhibition of human CYP2D6 at 1 uM using luciferin-MEEGE as substrate by enzyme bag based one point inhibition assay relative to control; assay type: ADME; conditions: enzyme bags, probe luciferin-MEEGE
Sequence of CYP2D6 (P10635 whole entry): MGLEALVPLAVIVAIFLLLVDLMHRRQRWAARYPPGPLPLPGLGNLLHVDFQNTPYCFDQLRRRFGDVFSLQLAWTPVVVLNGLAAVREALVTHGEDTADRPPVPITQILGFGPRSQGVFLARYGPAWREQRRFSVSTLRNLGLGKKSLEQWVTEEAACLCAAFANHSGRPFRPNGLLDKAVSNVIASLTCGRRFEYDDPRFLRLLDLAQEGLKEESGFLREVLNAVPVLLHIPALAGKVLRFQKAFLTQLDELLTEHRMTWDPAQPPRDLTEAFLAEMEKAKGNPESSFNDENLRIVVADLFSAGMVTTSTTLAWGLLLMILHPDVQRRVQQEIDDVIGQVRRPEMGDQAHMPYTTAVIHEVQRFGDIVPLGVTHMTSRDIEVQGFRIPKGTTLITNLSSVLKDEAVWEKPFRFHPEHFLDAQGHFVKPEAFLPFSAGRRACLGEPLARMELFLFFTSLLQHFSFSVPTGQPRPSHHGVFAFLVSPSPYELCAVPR

CYP2E1 = CYP2E1 (Homo sapiens, UniProt P05181); test: Inhibition of human CYP2E1 at 1 uM using luciferin-ME as substrate by enzyme bag based one point inhibition assay relative to control; assay type: ADME; conditions: enzyme bags, probe luciferin-ME
Sequence of CYP2E1 (P05181 whole entry): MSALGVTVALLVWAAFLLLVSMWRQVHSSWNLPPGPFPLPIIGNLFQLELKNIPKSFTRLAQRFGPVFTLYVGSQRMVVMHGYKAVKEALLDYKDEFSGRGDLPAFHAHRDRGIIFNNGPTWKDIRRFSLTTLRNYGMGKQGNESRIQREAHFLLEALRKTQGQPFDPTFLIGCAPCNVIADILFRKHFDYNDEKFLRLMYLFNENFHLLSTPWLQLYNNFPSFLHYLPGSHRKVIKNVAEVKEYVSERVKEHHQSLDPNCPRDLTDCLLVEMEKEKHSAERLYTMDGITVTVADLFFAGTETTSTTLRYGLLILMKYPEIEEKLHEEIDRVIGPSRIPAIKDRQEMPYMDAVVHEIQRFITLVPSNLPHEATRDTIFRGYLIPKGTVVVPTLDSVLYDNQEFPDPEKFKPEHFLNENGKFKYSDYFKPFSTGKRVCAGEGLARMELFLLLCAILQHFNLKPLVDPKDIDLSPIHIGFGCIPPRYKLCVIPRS

CYP3A4 = CYP3A4 (Homo sapiens, UniProt P08684); test: Inhibition of human CYP3A4 at 1 uM using luciferin-BE as substrate by enzyme bag based one point inhibition assay relative to control; assay type: ADME; conditions: enzyme bags, probe luciferin-BE
Sequence of CYP3A4 (P08684 whole entry): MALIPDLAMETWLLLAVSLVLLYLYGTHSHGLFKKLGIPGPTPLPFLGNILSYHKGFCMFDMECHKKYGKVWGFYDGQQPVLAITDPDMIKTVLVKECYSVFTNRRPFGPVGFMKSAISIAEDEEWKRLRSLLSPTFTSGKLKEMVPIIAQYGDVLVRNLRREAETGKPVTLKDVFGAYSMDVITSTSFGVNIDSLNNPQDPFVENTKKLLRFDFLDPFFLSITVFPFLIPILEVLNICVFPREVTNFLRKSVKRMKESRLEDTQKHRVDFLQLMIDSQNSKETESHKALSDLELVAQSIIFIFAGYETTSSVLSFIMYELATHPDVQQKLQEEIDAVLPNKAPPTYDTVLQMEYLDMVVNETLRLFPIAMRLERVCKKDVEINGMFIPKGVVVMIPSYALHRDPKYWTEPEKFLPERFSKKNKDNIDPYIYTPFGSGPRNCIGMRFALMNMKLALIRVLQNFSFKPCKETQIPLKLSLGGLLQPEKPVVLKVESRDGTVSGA

inhibition at 0.1 µM (Cytochrome P450 4Z1 [1]) [%] | inhibition at 1 µM (Cytochrome P450 4Z1 [2]) [%] | inhibition at 1 µM (CYP1A2) [%] | inhibition at 1 µM (CYP2C9) [%] | inhibition at 1 µM (CYP2C19) [%] | inhibition at 1 µM (CYP2D6) [%] | inhibition at 1 µM (CYP2E1) [%] | inhibition at 1 µM (CYP3A4) [%] | Structure (SMILES) | IC50 (Cytochrome P450 4Z1 [3]) [µM] | IC50 (Cytochrome P450 4Z1 [4]) [µM]
1 | 12 |  |  |  |  |  |  | O=C(O)CCC1CCCN(C(=O)c2ccc(Cn3ccnc3)cc2)C1 (stereo unspecified) |  | 
13 | 22 |  |  |  |  |  |  | CC1CCN(C(=O)c2cccc(OCC(=O)O)c2)CC1n1ccnc1 (stereo unspecified) |  | 
5 | 10 |  |  |  |  |  |  | Cn1cnc2cc(C(=O)Nc3ccc(Oc4nn[nH]n4)cc3)ccc21 |  | 
36 | 82 | 2.7 | -0.2 | 1.4 | -5.8 | 54 | 12 | O=C(O)c1cccc(CNC(=O)c2ccc(-n3ccnc3)cc2)c1 | 0.063 | 
21 | 24 |  |  |  |  |  |  | O=C(O)/C=C/c1ccc(Cn2ccnc2)cc1 [OZAGREL] |  | 

Structure (SMILES) | inhibition at 0.1 µM (Cytochrome P450 4Z1 [1]) [%] | inhibition at 1 µM (Cytochrome P450 4Z1 [2]) [%] | inhibition at 1 µM (CYP1A2) [%] | inhibition at 1 µM (CYP2C9) [%] | inhibition at 1 µM (CYP2C19) [%] | inhibition at 1 µM (CYP2D6) [%] | inhibition at 1 µM (CYP2E1) [%] | inhibition at 1 µM (CYP3A4) [%] | IC50 (Cytochrome P450 4Z1 [3]) [µM] | IC50 (Cytochrome P450 4Z1 [4]) [µM]
c1ccc(Cn2ccnc2)cc1 | 9 | 0 |  |  |  |  |  |  | 6.7 | 5.9
